For assay [1], the target named is T1, Mannose-6-phosphate isomerase (Homo sapiens, UniProt P34949).
T1 sequence (P34949 whole entry): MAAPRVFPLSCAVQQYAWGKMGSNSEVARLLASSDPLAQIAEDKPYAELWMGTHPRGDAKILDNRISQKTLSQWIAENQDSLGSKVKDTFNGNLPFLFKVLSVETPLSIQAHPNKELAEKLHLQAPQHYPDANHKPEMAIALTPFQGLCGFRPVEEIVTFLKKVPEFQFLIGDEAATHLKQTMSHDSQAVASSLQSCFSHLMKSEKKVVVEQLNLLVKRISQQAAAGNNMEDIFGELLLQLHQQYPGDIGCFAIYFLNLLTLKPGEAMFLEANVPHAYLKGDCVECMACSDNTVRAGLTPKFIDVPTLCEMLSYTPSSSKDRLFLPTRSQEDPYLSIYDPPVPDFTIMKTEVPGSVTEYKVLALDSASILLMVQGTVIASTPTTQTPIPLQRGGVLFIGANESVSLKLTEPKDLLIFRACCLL
The experiment in a line: MPI inhibition at elevated mannose 6-phosphate – biochemical, fluorescence intensity, high mannose 6-phosphate, primary screen (AID 1220).

A short description of assay [2]: viability loss in THP-1 monocytes – THP-1 cells, cytotoxicity control for Vif-APOBEC3G degradation inhibitor project, dose response (AID 1117359). It counts as functional. Particulars: THP-1.
Assay [3] deals with Streptococcus sp. 'group A'. The experiment in a line: Streptococcus pyogenes SK(-)GAS viability under kanamycin – luminescence, BacTiterGlo, confirmation, counter-screen for streptokinase expression inhibitor project, dose response (AID 1900). The format is functional, organism-based.
In assay [4] the target is T2, Streptokinase A (Streptococcus pyogenes serotype M1, UniProt P10520).
T2 sequence (P10520 whole entry): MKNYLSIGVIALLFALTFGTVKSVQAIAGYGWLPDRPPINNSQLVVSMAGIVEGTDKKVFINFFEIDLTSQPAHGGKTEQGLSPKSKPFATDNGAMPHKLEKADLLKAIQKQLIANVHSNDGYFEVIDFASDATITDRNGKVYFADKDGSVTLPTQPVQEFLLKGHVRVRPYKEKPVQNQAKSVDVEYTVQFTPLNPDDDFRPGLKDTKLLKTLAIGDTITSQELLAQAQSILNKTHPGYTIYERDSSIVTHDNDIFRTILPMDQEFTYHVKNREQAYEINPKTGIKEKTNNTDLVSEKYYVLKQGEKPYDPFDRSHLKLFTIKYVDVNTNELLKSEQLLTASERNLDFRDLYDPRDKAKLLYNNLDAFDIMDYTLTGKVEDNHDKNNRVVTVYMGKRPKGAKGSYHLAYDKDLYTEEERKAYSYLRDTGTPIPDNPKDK
The experiment in a line: viability-normalized secreted streptokinase activity reduction – plasminogen activation absorbance, OD405, dose response (AID 1914).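 Also: secreted streptokinase activity via plasminogen activation per viability signal from cell pellet.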 It counts as functional, Streptococcus pyogenes M1 GAS.

Assay [5] is described as follows: Trypanosoma cruzi growth suppression in host cells – NIH3T3 host cells, beta-gal luminescence, confirmation (AID 2044).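 Also: intracellular parasites grown in NIH/3T3 mouse fibroblasts as host cells; luminescent beta-galactosidase reporter signal from transgenic T. cruzi replicating inside host cells; inhibitors lower the luminescence signal.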 The format is functional, cell-based.
Assay [6] can be described thus: viability of PTEN-deleted HCT116 cells – cell-based, HCT116 PTEN knockout, dose response (AID 1047).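 Also: HCT116 colon tumor cells with PTEN knocked out; cells exposed to compound for 60 hours before readout; potency for loss of cell viability measured by luminescence.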 The format is functional.
The nature of assay [7]: NIH3T3 cell viability loss – ATP luminescence, mouse fibroblasts, counter-screen, dose response (AID 2010).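 Also: cells exposed to compound for about 90 hours before reading.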 The format is functional, cell-based.
Assay [8] is described as follows: viability of HCT116 lacking mutant beta-catenin – cell-based, human colon tumor, dose response (AID 1045).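 Also: HCT116 colon tumor cells with beta catenin knocked out; cells exposed to compound for 60 hours.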 The format is functional.
For assay [9], the system named is Streptococcus. The experiment in a line: GAS UMAA2166 growth inhibition – luminescence, BacTiterGlo, counter-screen for streptokinase expression inhibitor project, dose response (AID 1915).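 Also: potency for reduction of bacterial viability or growth.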 The format is functional, organism-based.
Assay [10] is described as follows: Luminescence Cell-Based Dose Retest to Confirm Inhibitors of Cancer Stem Cells. [Related pubchem assays (depositor defined):AID2717, AID2721]. It counts as functional. Particulars: Homo sapiens.
Assay [11] can be described thus: viability loss in Vero cells – cytotoxicity control for Vif-APOBEC3G degradation inhibitor project, dose response (AID 1117358). It counts as functional. Particulars: Vero.
Assay [12] has as its system H9c2. The experiment in a line: cells. Particulars: Rattus norvegicus, H9c2, Myocardium. It counts as functional, cell-based.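 Also: confirmatory concentration-response retest of ultra-high-throughput screening hits for modulation of myocardial damage; cell death induced by hydrogen peroxide oxidative stress; compound pretreatment for 60 min then peroxide exposure for 2 h; potency is for protecting the cells against peroxide damage rather than for killing them.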

Calls of active or inactive are those of the source. A value given as a limit tells only on which side of the number the result lay.
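For AC50 in this document: cells exposed to compound for roughly 70 hours or longer before luminescence read.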

As to `COc1ccccc1-n1c(SCC(=O)NCc2ccc3c(c2)OCO3)nc2cc([N+](=O)[O-])ccc21`, the concentration for half-maximal inhibition (IC50) in assay [1] is > 50 µM (not active). Further, the CC50 in [2] is > 40 µM (active).
Take `O=C(/C=C/c1ccccc1)NC(NC(=S)Nc1cc(Cl)ccc1Cl)C(Cl)(Cl)Cl` (stereo not drawn): the 50% effective concentration (EC50) is 2.43 µM (active) in [3]; 4.43 µM (active) in assay [4]; 1.73 µM (active) in assay [5]; 17.3 µM (active) in [6]; > 60 µM (not active) in assay [7]; 16.1 µM (active) in assay [8]. The 50% effective concentration (EC50) in [9] was 64.2 µM (active). Besides, the AC50 in [10] is 0.993 µM (active). Moreover, the CC50 in assay [11] is > 40 µM (active).
Consider `Cc1ccc(C)c2nc(O)c(CN(Cc3ccc4c(c3)OCO4)Cc3nnnn3Cc3ccco3)cc12`, for which, in [12], the IC50 was > 79 µM (inactive). In addition, in assay [11], the CC50 is > 40 µM (active).

These data come from ChEMBL document CHEMBL1201862, “PubChem BioAssay data set” (2004).
